Assay results as given in patent US20130102624A1 (priority 2011, published 2013).

Columns and labels:
[1] = urinary excretion of thiamine metabolites TMA and PMA and TMA/PMA ratio (LC-MS/MS of urine)
[2] = in vivo; cited from earlier work

Row | Urinary excretion rate at lowest point during fasting ([1]; human) | SMILES | TMA/PMA ratio relative to its typical fasting value (transient reduction) ([1]; consumption of thiamine after a period of induced deficiency) | Ratio of TMA to PMA (TMA/PMA) in urine ([1]; human, following consumption of thiamine (100 mg) after fast and sucrose) | Oral bioavailability [2]
1 | 0.07 nmol/h | Cc1ncc(CO)c(N)n1 [PMA] |  |  | 
2 | 0.06 nmol/h | Cc1ncsc1CCO [TMA] |  |  | 
3 |  | Cc1ncc(C[n+]2csc(CCO)c2C)c(N)n1 [thiamine] | less than 20% | 0.12 | poor
